# According to patent publication US20030007941A1, “Method of treating hair loss using thyromimetic compounds” (priority 2001, published 2003):
# What was measured:
# C3H/HeN mice = assay: Telogen Conversion Assay (topical hair growth); format: in vivo; conditions: for Hair Growth at LDO (% Animals): animals with hair growth score of 1 or greater; for Hair Growth in 50% of Animals: day when 50% or greater had score of 1 or greater
# Text: The Telogen Conversion Assay measures the potential of a compound (hereinafter referred to as the “test compound”) to convert mice in the resting stage of the hair growth cycle (“telogen”) to the growth stage of the hair growth cycle (“anagen”). Without intending to be limited by theory, there are three principal phases of the hair growth cycle: anagen, catagen and telogen. The telogen period in C3H/HeN mice lasts from approximately 40 days of age until about 75 days of age, when hair growth is synchronized. It is believed that after 75 days of age, hair growth is no longer synchronized. For example, about 40 day-old mice with dark fur (brown or black) may be used in hair growth experiments; melanogenesis occurs in these animals along with hair (fur) growth and the topical application of hair growth inducers may be evaluated in these animals.
# The Telogen Conversion Assay described below is used to screen test compounds for potential hair growth by measuring melanogenesis:
# Objectives: To evaluate and compare the effect of test compounds applied topically on C3H/HeN mice for hair growth.
# Animals: Female C3H/HeN mice, six and a half weeks of age.
# Route and Duration of Treatment: Topical dosing with test compounds on mice is scheduled once or twice daily for five (5) consecutive days for one week to four weeks. Topical dosing begins on Day 0 by applying test compound or vehicle in volumes of 20 μl which keeps the solubilized test compound to a prescribed area of approximately one (1) square centimeter (1 cm^2) in the center of the clipped lower back of each mouse.
# Study Design: Only mice with pink skin or in the telogen phase of the hair growth cycle are selected for inclusion in the study. On Friday, before the experiment starts, the mice are weighed and then anesthetized with isoflurane in a mouse chamber. The hair over the lower dorsal area is clipped with a Wahl clipper using a #40 blade. Care is taken to avoid abrading the skin surface. On the Monday (Day 0) following hair clipping, the mice are again anesthetized with isoflurane and photographed with a digital camera. After digital photographs are taken, the mice receive 20 μl of the respective test compounds applied with an automated pipette to the clipped area between the hind legs. The test compound for each treatment group is evenly spread with the pipette tip to an area approximately 1 square centimeter (1 cm^2), and applied to the same site on subsequent dosing days. All topical treatments are administered as described in the Route and Duration of Treatment Section.
# Observations of the test sites are made three (3) times a week on Monday, Wednesday, and Friday, with observations beginning immediately after the first week of treatment and looking for changes in skin pigment, hair growth, and signs of irritation such as scaling, peeling, scabbing and erythema. Digital photographs are taken on Days 0, 10, 15, 31 and 35 (end of the study) for the dosing groups. Body weights of mice are taken on the first and last days of observation for each test group.
# The scoring system for hair growth is described below:
# 0=No hair growth/pigment change (pink skin);
# 1=Gray/dark skin color (no visible hair growth);
# 2=Sparse/diffuse terminal hair growth;
# 3=dense, normal hair growth.
# ph 2=peripheral hair growth with a score of 2
# ph 3=peripheral hair growth with a score of 3
# ldsh=long, diffuse/scattered hair growth in the dosing site
# Scaling, peeling, scabbing, or erythema are scored as present (+) and absent (−). Any other local (e.g. test compound precipitation) or systemic abnormalities and aberrant hair growth are described on raw data scoring sheet.
# Table 1 is a summary table of the results of the evaluation of five different test compounds in the Telogen Conversion Assay described above. Animals were observed and scored for hair growth using the scoring system for hair growth described above.
# mice and rats = conditions: topical; cited from earlier work
# AGA mouse = conditions: topical, model for androgen dependent hair loss; cited from earlier work
# [1] = Experiment 1, 0.001% topical, 1 wk, LDO day 30
# [2] = Experiment 1, 0.01% topical, 1 wk, LDO day 30
# [3] = Experiment 1, 0.1% topical, 1 wk, LDO day 30
# [4] = Experiment 1, 0.3% topical, 1 wk, LDO day 30
# [5] = Experiment 2, 0.001% topical, 1 wk, LDO day 35
# [6] = Experiment 2, 0.01% topical, 1 wk, LDO day 35
# [7] = Experiment 2, 0.1% topical, 1 wk, LDO day 35
# [8] = Experiment 2, 0.3% topical, 1 wk, LDO day 35
# [9] = Experiment 3, 0.1% topical, 1 wk, LDO day 35
# [10] = Experiment 3, 0.1% topical, 2 wks, LDO day 35
smiles,measurement,setting,value
"O=C(NC1CCCCC1)c1cc(Oc2c(Cl)cc(-n3ncc(=O)[nH]c3=O)cc2Cl)ccc1O [Cpd #1, N-Cyclohexyl-5-[2,6-dichloro-4-(3,5-dioxo-4,5-dihydro-3H-[1,2,4]triazin-2-yl)-phenoxy]-2-hydroxy-benzamide]",Hair Growth at LDO (% Animals),C3H/HeN mice; [1],22%
same,Hair Growth in 50% of Animals,C3H/HeN mice; [1],>30 days
same,Hair Growth at LDO (% Animals),C3H/HeN mice; [2],75%
same,Hair Growth in 50% of Animals,C3H/HeN mice; [2],14 days
same,Hair Growth at LDO (% Animals),C3H/HeN mice; [3],100%
same,Hair Growth in 50% of Animals,C3H/HeN mice; [3],7 days
same,Hair Growth at LDO (% Animals),C3H/HeN mice; [4],100%
same,Hair Growth in 50% of Animals,C3H/HeN mice; [4],9 days
same,Hair Growth at LDO (% Animals),C3H/HeN mice; [5],50%
same,Hair Growth in 50% of Animals,C3H/HeN mice; [5],18 days
same,Hair Growth at LDO (% Animals),C3H/HeN mice; [6],100%
same,Hair Growth in 50% of Animals,C3H/HeN mice; [6],14 days
same,Hair Growth at LDO (% Animals),C3H/HeN mice; [7],100%
same,Hair Growth in 50% of Animals,C3H/HeN mice; [7],7 days
same,Hair Growth at LDO (% Animals),C3H/HeN mice; [8],100%
same,Hair Growth in 50% of Animals,C3H/HeN mice; [8],9 days
same,Hair Growth at LDO (% Animals),C3H/HeN mice; [9],100%
same,Hair Growth in 50% of Animals,C3H/HeN mice; [9],7 days
same,Hair Growth at LDO (% Animals),C3H/HeN mice; [10],100%
same,Hair Growth in 50% of Animals,C3H/HeN mice; [10],7 days
"O=C(c1cc(Oc2c(Cl)cc(-n3ncc(=O)[nH]c3=O)cc2Cl)ccc1O)N1CCc2ccccc2C1 [Cpd #2, 2-{3,5-Dichloro-4-[3-(3,4-dihydro-1H-isoquinoline-2-carbonyl)-4-hydroxy-phenoxy]-phenyl}-2H-[1,2,4]triazine-3,5-dione]",Hair Growth at LDO (% Animals),C3H/HeN mice; [10],100%
same,Hair Growth in 50% of Animals,C3H/HeN mice; [10],11 days
"Cc1cc(NC(=O)C(=O)O)cc(C)c1Oc1ccc(O)c2c1CCC2 [Cpd #3, N-[4-(7-hydroxy-indan-4-yloxy)-3,5-dimethyl-phenyl]-oxamic acid]",Hair Growth at LDO (% Animals),C3H/HeN mice; [10],20%
same,Hair Growth in 50% of Animals,C3H/HeN mice; [10],>35 days
"Cc1cc(-n2ncc(=O)[nH]c2=O)cc(C)c1Oc1ccc(O)c(Cc2ccc(F)cc2)c1 [Cpd #4, 2-{4-[3-(4-Fluoro-benzyl)-4-hydroxy-phenoxy]-3,5-dimethyl-phenyl}-2H-[1,2,4]triazine-3,5-dione]",Hair Growth at LDO (% Animals),C3H/HeN mice; [10],100%
same,Hair Growth in 50% of Animals,C3H/HeN mice; [10],9 days
"O=C(c1ccc(F)cc1)c1cc(Oc2c(Cl)cc(-n3ncc(=O)[nH]c3=O)cc2Cl)ccc1O [Cpd #5, 2-{3,5-Dichloro-4-[3-(4-fluoro-benzoyl)-4-hydroxy-phenoxy]-phenyl}-2H-[1,2,4]triazine-3,5-dione]",Hair Growth at LDO (% Animals),C3H/HeN mice; [10],100%
same,Hair Growth in 50% of Animals,C3H/HeN mice; [10],9 days
"N[C@@H](Cc1cc(I)c(Oc2ccc(O)c(I)c2)c(I)c1)C(=O)O [T3, 3,5,3′-triiodo-L-thyronine]","effect on epidermal proliferation, dermal thickening and hair growth",mice and rats,"stimulates epidermal proloferation, dermal thickening and hair growth"
same,effect on testosterone induced alopecia,AGA mouse,inhibitory effect
